Measurements reported in patent US20200015481A1, “SYNERGISTIC WEED CONTROL FROM APPLICATIONS OF PYRIDINE CARBOXYLIC ACID HERBICIDES AND PHOTOSYSTEM II INHIBITORS” (Dow AgroSciences, LLC, priority 2014, published 2020).

Legend:
[1] = tested on: ivy-leaved speedwell (VERHE, Veronica hederifolia); assay: Postemergence herbicidal activity, greenhouse (Example 3); assay type: in vivo
Source text: (§1) Compound 1 was formulated as an EC and combined with bentazon, isoproturon, metribuzin and atrazine.

[2] = tested on: pigweed (Amaranthus retroflexus, AMARE); assay: as above; assay type: in vivo
Source text: as §1

[3] = tested on: poinsettia (Euphorbia heterophylla, EPHHL); assay: as above; assay type: in vivo
Source text: as §1

[4] = tested on: wild pansy (VIOTR, Viola tricolor); assay: as above; assay type: in vivo
Source text: as §1

[5] = tested on: barnyardgrass (Echinochloa crus-galli, ECHCG); assay: as above; assay type: in vivo
Source text: as §1

[6] = tested on: large crabgrass (Digitaria sanguinalis, DIGSA); assay: as above; assay type: in vivo
Source text: as §1

[7] = tested on: nutsedge (Cyperus esculentus, CYPES); assay: as above; assay type: in vivo
Source text: as §1

[8] = tested on: rape (Brassica napus, BRSNN); assay: as above; assay type: in vivo
Source text: as §1

[9] = tested on: thistle (Cirsium arvense, CIRAR); assay: as above; assay type: in vivo
Source text: as §1

[10] = tested on: velvetleaf (Abutilon theophrasti, ABUTH); assay: as above; assay type: in vivo
Source text: as §1

[11] = tested on: winter wheat (TRZAW); assay: Postemergence crop phytotoxicity, greenhouse (Example 3); assay type: in vivo, Triticum aestivum; conditions: 20-22 d
Source text: as §1

[12] = tested on: corn (ZEAMX); assay: as above; assay type: in vivo, Zea mays; conditions: 20-22 d
Source text: as §1

[13] = tested on: ivyleaf morningglory (Ipomoea hederacea, IPOHE); assay: Postemergence herbicidal activity, greenhouse (Example 2); assay type: in vivo; conditions: 20-22 d
Description: (§2) Stocks solutions of the compound mixtures were prepared following the same procedure.

[14] = tested on: nutsedge (Cyperus esculentus, CYPES); assay: as above; assay type: in vivo; conditions: 20-22 d
Description: as §2

[15] = tested on: pigweed (AMARE, Amaranthus retroflexus); assay: as above; assay type: in vivo; conditions: 20-22 d
Description: as §2

[16] = tested on: poinsettia (Euphorbia heterophylla, EPHHL); assay: as above; assay type: in vivo; conditions: 20-22 d
Description: as §2

[17] = tested on: maize (ZEAMX); assay: Postemergence crop phytotoxicity, greenhouse (Example 2)
Description: as §2

[18] = tested on: winter wheat (TRZAW); assay: as above
Description: as §2

[19] = tested on: winter wheat (TRZAW); assay: Postemergence crop phytotoxicity, greenhouse (Example 1); conditions: 20-22 d
[20] = tested on: spring barley (HORVS); assay: as above; conditions: Bromoxynil 70 g ai/ha, 20-22 d
[21] = tested on: pigweed (AMARE, Amaranthus retroflexus); assay: Postemergence herbicidal activity, greenhouse (Example 1); conditions: 20-22 d
[22] = tested on: thistle (CIRAR, Cirsium arvense); assay: as above; conditions: 20-22 d
[23] = tested on: common sunflower (Helianthus annuus, HELAN); assay: Postemergence herbicidal activity, greenhouse (Example 3); assay type: in vivo
Source text: as §1

[24] = tested on: rice (ORYSA); assay: Postemergence crop phytotoxicity, greenhouse (Example 3); assay type: in vivo, Oryza sativa
Source text: as §1

[25] = Compound 1 5 g ae/ha, 20-22 d (Tables 4-6)
[26] = Compound 1 5 g ae/ha, 20-22 d (Table 7)
[27] = Isoproturon 150 g ai/ha, 20-22 d

## CCNc1nc(Cl)nc(NC(C)C)n1 [Atrazine]
[1]; Atrazine 450 g ai/ha, 20-22 d
  Effect (% visual injury) Obs: 45%
[2]; Atrazine 450 g ai/ha, 20-22 d
  Effect (% visual injury) Obs: 50%
[3]; Atrazine 450 g ai/ha, 20-22 d
  Effect (% visual injury) Obs: 0%
[4]; Atrazine 450 g ai/ha, 20-22 d
  Effect (% visual injury) Obs: 5%

## CC(C)N1C(=O)c2ccccc2NS1(=O)=O [Bentazon]
[5]; Bentazon 60 g ai/ha, 20-22 d
  Effect (% visual injury) Obs: 0%
[6]; Bentazon 60 g ai/ha, 20-22 d
  Effect (% visual injury) Obs: 0%
[7]; Bentazon 60 g ai/ha, 20-22 d
  Effect (% visual injury) Obs: 0%
[2]; Bentazon 60 g ai/ha, 20-22 d
  Effect (% visual injury) Obs: 10%
[3]; Bentazon 60 g ai/ha, 20-22 d
  Effect (% visual injury) Obs: 0%
[8]; Bentazon 60 g ai/ha, 20-22 d
  Effect (% visual injury) Obs: 20%
[9]; Bentazon 60 g ai/ha, 20-22 d
  Effect (% visual injury) Obs: 0%
[10]; Bentazon 60 g ai/ha, 20-22 d
  Effect (% visual injury) Obs: 0%
[11]; Bentazon 60 g ai/ha
  Effect (% visual injury) Obs: 0%
[12]; Bentazon 60 g ai/ha
  Effect (% visual injury) Obs: 0%

## N#Cc1cc(Br)c(O)c(Br)c1 [Bromoxynil]
[13]; Bromoxynil 70 g ai/ha
  Effect (% visual injury) Obs: 25%
[14]; Bromoxynil 70 g ai/ha
  Effect (% visual injury) Obs: 0%
[15]; Bromoxynil 70 g ai/ha
  Effect (% visual injury) Obs: 20%
[16]; Bromoxynil 70 g ai/ha
  Effect (% visual injury) Obs: 5%
[17]; ZEAMX, Bromoxynil 70 g ai/ha, postemergence, 20-22 d
  Effect (% visual injury) Obs: 0%
[18]; TRZAW, Bromoxynil 70 g ai/ha, postemergence, 20-22 d
  Effect (% visual injury) Obs: 0%
[19]; Bromoxynil 70 g ai/ha
  Effect (% visual injury) Obs: 0%
[19]; Bromoxynil 140 g ai/ha
  Effect (% visual injury) Obs: 0%
[20]
  Effect (% visual injury) Obs: 0%
[21]; Bromoxynil 140 g ai/ha
  Effect (% visual injury) Obs: 0%
[22]; Bromoxynil 70 g ai/ha
  Effect (% visual injury) Obs: 40%

## Nc1c(F)c(-c2ccc3cc[nH]c3c2F)nc(C(=O)O)c1Cl [Compound 1]
[5]; [25]
  Effect (% visual injury) Obs: 60%
[23]; [25]
  Effect (% visual injury) Obs: 97%
[1]; [26]
  Effect (% visual injury) Obs: 40%
[6]; [25]
  Effect (% visual injury) Obs: 0%
[7]; [25]
  Effect (% visual injury) Obs: 10%
[2]; [26]
  Effect (% visual injury) Obs: 65%
[2]; [25]
  Effect (% visual injury) Obs: 93%
[3]; [26]
  Effect (% visual injury) Obs: 97%
[3]; [25]
  Effect (% visual injury) Obs: 97%
[8]; [25]
  Effect (% visual injury) Obs: 50%
[9]; [25]
  Effect (% visual injury) Obs: 20%
[10]; [25]
  Effect (% visual injury) Obs: 10%
[4]; [26]
  Effect (% visual injury) Obs: 5%
[4]; [25]
  Effect (% visual injury) Obs: 10%
[24]; Oryza sativa (rice), in vivo
  Effect (% visual injury) Obs: 0%

## Nc1c(F)c(-c2ccc3cc[nH]c3c2F)nc(C(=O)OCc2ccccc2)c1Cl [Compound 2]
[13]; Compound 2 5 g ae/ha
  Effect (% visual injury) Obs: 10%
[13]; Compound 2 10 g ae/ha
  Effect (% visual injury) Obs: 20%
[14]; Compound 2 5 g ae/ha
  Effect (% visual injury) Obs: 5%
[14]; Compound 2 10 g ae/ha
  Effect (% visual injury) Obs: 10%
[15]; Compound 2 5 g ae/ha
  Effect (% visual injury) Obs: 88%
[15]; Compound 2 10 g ae/ha
  Effect (% visual injury) Obs: 100%
[16]; Compound 2 5 g ae/ha
  Effect (% visual injury) Obs: 35%
[16]; Compound 2 10 g ae/ha
  Effect (% visual injury) Obs: 75%
[17]; Zea mays (maize), in vivo
  Effect (% visual injury) Obs: 3%
[18]; Triticum aestivum (winter wheat), in vivo
  Effect (% visual injury) Obs: 3%

## Nc1c(F)c(-c2ccc3cc[nH]c3c2F)nc(C(=O)[O-])c1Cl.[K+] [Compound 7]
[21]; Compound 7 8.75 g ae/ha
  Effect (% visual injury) Obs: 70%
[22]; Compound 7 5 g ae/ha
  Effect (% visual injury) Obs: 50%
[22]; Compound 7 10 g ae/ha
  Effect (% visual injury) Obs: 65%

## CC(C)c1ccc(NC(=O)N(C)C)cc1 [Isoproturon]
[5]; [27]
  Effect (% visual injury) Obs: 0%
[23]; [27]
  Effect (% visual injury) Obs: 0%
[7]; [27]
  Effect (% visual injury) Obs: 0%
[8]; [27]
  Effect (% visual injury) Obs: 0%
[9]; [27]
  Effect (% visual injury) Obs: 10%
[4]; [27]
  Effect (% visual injury) Obs: 0%

## CSc1nnc(C(C)(C)C)c(=O)n1N [Metribuzin]
[5]; Metribuzin 25 g ai/ha, 20-22 d
  Effect (% visual injury) Obs: 0%
[7]; Metribuzin 25 g ai/ha, 20-22 d
  Effect (% visual injury) Obs: 0%
[2]; Metribuzin 25 g ai/ha, 20-22 d
  Effect (% visual injury) Obs: 10%
[3]; Metribuzin 25 g ai/ha, 20-22 d
  Effect (% visual injury) Obs: 0%
[8]; Metribuzin 25 g ai/ha, 20-22 d
  Effect (% visual injury) Obs: 0%
[9]; Metribuzin 25 g ai/ha, 20-22 d
  Effect (% visual injury) Obs: 10%
[11]; Metribuzin 25 g ai/ha
  Effect (% visual injury) Obs: 0%
[12]; Metribuzin 25 g ai/ha
  Effect (% visual injury) Obs: 0%
[24]; ORYSA, Metribuzin 25 g ai/ha, postemergence, 20-22 d
  Effect (% visual injury) Obs: 0%
